# System: 521955-158-R2-J5-PDC complex spheroids, viability
# Assay: Anticancer human tumor 521955-158-R2-J5-PDC patient-derived pancreatic carcinoma cell line growth inhibition [RAS]
# Settings: for IC50: curve of first compound; for viability, T/C: stronger effect = lower value
# Method in brief: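 Agents were tested in combination matrices in half-log decrements from a top concentration at or near clinical Cmax (10 microM if undetermined). Targets were multi-cell spheroids of tumour lines plus HUVEC and MSC stromal cells.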
# [1] = second compound 0.000949 µM, first compound 0.0316 µM
# [2] = second compound 0.000949 µM, first compound 0.1 µM
# [3] = second compound 0.000949 µM, first compound 0.316 µM
# [4] = second compound 0.000949 µM, first compound 1 µM
# [5] = second compound 0.000949 µM, first compound 3.16 µM
# [6] = second compound 0.000949 µM, first compound 10 µM
# [7] = second compound 0.003 µM, first compound 0.0316 µM
# [8] = second compound 0.003 µM, first compound 0.1 µM
# [9] = second compound 0.003 µM, first compound 0.316 µM
# [10] = second compound 0.003 µM, first compound 1 µM
# [11] = second compound 0.003 µM, first compound 3.16 µM
# [12] = second compound 0.003 µM, first compound 10 µM
# [13] = second compound 0.00949 µM, first compound 0.0316 µM
# [14] = second compound 0.00949 µM, first compound 0.1 µM
# [15] = second compound 0.00949 µM, first compound 0.316 µM
# [16] = second compound 0.00949 µM, first compound 1 µM
# [17] = second compound 0.00949 µM, first compound 3.16 µM
# [18] = second compound 0.00949 µM, first compound 10 µM
# [19] = second compound 0.03 µM, first compound 0.0316 µM
# [20] = second compound 0.03 µM, first compound 0.1 µM
# [21] = second compound 0.03 µM, first compound 0.316 µM
# [22] = second compound 0.03 µM, first compound 1 µM
# [23] = second compound 0.03 µM, first compound 3.16 µM
# [24] = second compound 0.03 µM, first compound 10 µM
# [25] = second compound 0.0949 µM, first compound 0.0316 µM
# [26] = second compound 0.0949 µM, first compound 0.1 µM
# [27] = second compound 0.0949 µM, first compound 0.316 µM
# [28] = second compound 0.0949 µM, first compound 1 µM
# [29] = second compound 0.0949 µM, first compound 3.16 µM
# [30] = second compound 0.0949 µM, first compound 10 µM
# [31] = second compound 0.3 µM, first compound 0.0316 µM
# [32] = second compound 0.3 µM, first compound 0.1 µM
# [33] = second compound 0.3 µM, first compound 0.316 µM
# [34] = second compound 0.3 µM, first compound 1 µM
# [35] = second compound 0.3 µM, first compound 3.16 µM
# [36] = second compound 0.3 µM, first compound 10 µM
# 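Note: compound exposure lasted seven days before the viability read.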
# 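Throughout, for viability, T/C: spheroids also contain HUVEC endothelial cells and mesenchymal stem cells as stroma.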
smiles,measurement,setting,value
CC(C)NCC(C(=O)N1CCN(c2ncnc3c2C(C)CC3O)CC1)c1ccc(Cl)cc1 (stereo not drawn) + CCn1c(-c2cccnc2C(C)OC)c2c3cc(ccc31)N1CCOC(CC(NC(=O)C(C(C)C)N(C)C(=O)C3(F)CCN(C(=O)C#CC(C)(C)N(C)C)CC3)C(=O)N3CCCC(N3)C(=O)OCC(C)(C)C2)C1,IC50,second compound 0.000949 µM,> 10000 nM
same,IC50,second compound 0.003 µM,> 10000 nM
same,IC50,second compound 0.00949 µM,> 10000 nM
same,IC50,second compound 0.03 µM,> 10000 nM
same,IC50,second compound 0.0949 µM,> 10000 nM
same,IC50,second compound 0.3 µM,8610 nM
same,"viability, T/C",[1],84.8%
same,"viability, T/C",[2],85.3%
same,"viability, T/C",[3],84.9%
same,"viability, T/C",[4],62.7%
same,"viability, T/C",[5],68%
same,"viability, T/C",[6],72%
same,"viability, T/C",[7],81.6%
same,"viability, T/C",[8],92.5%
same,"viability, T/C",[9],77.4%
same,"viability, T/C",[10],56.1%
same,"viability, T/C",[11],62.4%
same,"viability, T/C",[12],79.1%
same,"viability, T/C",[13],88.7%
same,"viability, T/C",[14],91.7%
same,"viability, T/C",[15],78.7%
same,"viability, T/C",[16],53%
same,"viability, T/C",[17],60.1%
same,"viability, T/C",[18],68%
same,"viability, T/C",[19],83.9%
same,"viability, T/C",[20],100%
same,"viability, T/C",[21],83%
same,"viability, T/C",[22],57.5%
same,"viability, T/C",[23],68.3%
same,"viability, T/C",[24],56.8%
same,"viability, T/C",[25],93.6%
same,"viability, T/C",[26],92%
same,"viability, T/C",[27],82.4%
same,"viability, T/C",[28],64.3%
same,"viability, T/C",[29],61.3%
same,"viability, T/C",[30],59.9%
same,"viability, T/C",[31],67.2%
same,"viability, T/C",[32],76.6%
same,"viability, T/C",[33],67.9%
same,"viability, T/C",[34],57.2%
same,"viability, T/C",[35],57.4%
same,"viability, T/C",[36],49.6%
CC(C)n1nc(-c2ccc3oc(N)nc3c2)c2c(N)ncnc21 + CCn1c(-c2cccnc2C(C)OC)c2c3cc(ccc31)N1CCOC(CC(NC(=O)C(C(C)C)N(C)C(=O)C3(F)CCN(C(=O)C#CC(C)(C)N(C)C)CC3)C(=O)N3CCCC(N3)C(=O)OCC(C)(C)C2)C1,IC50,second compound 0.000949 µM,21 nM
same,IC50,second compound 0.003 µM,20 nM
same,IC50,second compound 0.00949 µM,23.6 nM
same,IC50,second compound 0.03 µM,27.1 nM
same,IC50,second compound 0.0949 µM,19.2 nM
same,IC50,second compound 0.3 µM,13.5 nM
same,"viability, T/C","second compound 0.000949 µM, first compound 0.000316 µM",96.7%
same,"viability, T/C","second compound 0.000949 µM, first compound 0.001 µM",77.1%
same,"viability, T/C","second compound 0.000949 µM, first compound 0.00316 µM",83.1%
same,"viability, T/C","second compound 0.000949 µM, first compound 0.01 µM",61.4%
same,"viability, T/C",[1],41.8%
same,"viability, T/C",[2],36.5%
same,"viability, T/C","second compound 0.003 µM, first compound 0.000316 µM",82%
same,"viability, T/C","second compound 0.003 µM, first compound 0.001 µM",91%
same,"viability, T/C","second compound 0.003 µM, first compound 0.00316 µM",91.4%
same,"viability, T/C","second compound 0.003 µM, first compound 0.01 µM",64.8%
same,"viability, T/C",[7],41.5%
same,"viability, T/C",[8],30.1%
same,"viability, T/C","second compound 0.00949 µM, first compound 0.000316 µM",93.3%
same,"viability, T/C","second compound 0.00949 µM, first compound 0.001 µM",85.7%
same,"viability, T/C","second compound 0.00949 µM, first compound 0.00316 µM",83.6%
same,"viability, T/C","second compound 0.00949 µM, first compound 0.01 µM",70.3%
same,"viability, T/C",[13],42.5%
same,"viability, T/C",[14],29.2%
same,"viability, T/C","second compound 0.03 µM, first compound 0.000316 µM",89.2%
same,"viability, T/C","second compound 0.03 µM, first compound 0.001 µM",101%
same,"viability, T/C","second compound 0.03 µM, first compound 0.00316 µM",90.4%
same,"viability, T/C","second compound 0.03 µM, first compound 0.01 µM",69.8%
same,"viability, T/C",[19],48.6%
same,"viability, T/C",[20],34.2%
same,"viability, T/C","second compound 0.0949 µM, first compound 0.000316 µM",73.5%
same,"viability, T/C","second compound 0.0949 µM, first compound 0.001 µM",83.1%
same,"viability, T/C","second compound 0.0949 µM, first compound 0.00316 µM",86.2%
same,"viability, T/C","second compound 0.0949 µM, first compound 0.01 µM",63.3%
same,"viability, T/C",[25],39.9%
same,"viability, T/C",[26],28.8%
same,"viability, T/C","second compound 0.3 µM, first compound 0.000316 µM",73.9%
same,"viability, T/C","second compound 0.3 µM, first compound 0.001 µM",70.3%
same,"viability, T/C","second compound 0.3 µM, first compound 0.00316 µM",85.2%
same,"viability, T/C","second compound 0.3 µM, first compound 0.01 µM",55.2%
same,"viability, T/C",[31],40.7%
same,"viability, T/C",[32],30%
CC(Nc1ccc2c(c1)OCCn1cc(N3C(=O)OCC3C(F)F)nc1-2)C(N)=O (stereo not drawn) + CCn1c(-c2cccnc2C(C)OC)c2c3cc(ccc31)N1CCOC(CC(NC(=O)C(C(C)C)N(C)C(=O)C3(F)CCN(C(=O)C#CC(C)(C)N(C)C)CC3)C(=O)N3CCCC(N3)C(=O)OCC(C)(C)C2)C1,IC50,second compound 0.000949 µM,131 nM
same,IC50,second compound 0.003 µM,< 31.6 nM
same,IC50,second compound 0.00949 µM,< 31.6 nM
same,IC50,second compound 0.03 µM,< 31.6 nM
same,IC50,second compound 0.0949 µM,< 31.6 nM
same,IC50,second compound 0.3 µM,< 31.6 nM
same,"viability, T/C",[1],63.1%
same,"viability, T/C",[2],46.7%
same,"viability, T/C",[3],34.7%
same,"viability, T/C",[4],27%
same,"viability, T/C",[5],83.6%
same,"viability, T/C",[6],17.9%
same,"viability, T/C",[7],59.7%
same,"viability, T/C",[8],36.6%
same,"viability, T/C",[9],32.3%
same,"viability, T/C",[10],23.8%
same,"viability, T/C",[11],93.3%
same,"viability, T/C",[12],16.3%
same,"viability, T/C",[13],41.8%
same,"viability, T/C",[14],46.3%
same,"viability, T/C",[15],31.9%
same,"viability, T/C",[16],26.3%
same,"viability, T/C",[17],108%
same,"viability, T/C",[18],15.6%
same,"viability, T/C",[19],49.8%
same,"viability, T/C",[20],44.2%
same,"viability, T/C",[21],33.9%
same,"viability, T/C",[22],30.8%
same,"viability, T/C",[23],70.1%
same,"viability, T/C",[24],13.9%
same,"viability, T/C",[25],39.1%
same,"viability, T/C",[26],33.6%
same,"viability, T/C",[27],28%
same,"viability, T/C",[28],22.4%
same,"viability, T/C",[29],74.8%
same,"viability, T/C",[30],13.6%
same,"viability, T/C",[31],39.1%
same,"viability, T/C",[32],32.6%
same,"viability, T/C",[33],27.3%
same,"viability, T/C",[34],24.9%
same,"viability, T/C",[35],53.5%
same,"viability, T/C",[36],12.8%
C[C@@H](NC(=O)c1ncnc(N)c1Cl)c1ncc(C(=O)Nc2cc(C(F)(F)F)c(Cl)cn2)s1 + CCn1c(-c2cccnc2C(C)OC)c2c3cc(ccc31)N1CCOC(CC(NC(=O)C(C(C)C)N(C)C(=O)C3(F)CCN(C(=O)C#CC(C)(C)N(C)C)CC3)C(=O)N3CCCC(N3)C(=O)OCC(C)(C)C2)C1,IC50,second compound 0.000949 µM,5930 nM
same,IC50,second compound 0.003 µM,> 10000 nM
same,IC50,second compound 0.00949 µM,> 10000 nM
same,IC50,second compound 0.03 µM,10000 nM
same,IC50,second compound 0.0949 µM,> 10000 nM
same,IC50,second compound 0.3 µM,1510 nM
same,"viability, T/C",[1],137%
same,"viability, T/C",[2],100%
same,"viability, T/C",[3],84.3%
same,"viability, T/C",[4],70.1%
same,"viability, T/C",[5],55.1%
same,"viability, T/C",[6],53.1%
same,"viability, T/C",[7],111%
same,"viability, T/C",[8],121%
same,"viability, T/C",[9],85.6%
same,"viability, T/C",[10],73.2%
same,"viability, T/C",[11],64.2%
same,"viability, T/C",[12],56.1%
same,"viability, T/C",[13],118%
same,"viability, T/C",[14],94.8%
same,"viability, T/C",[15],89%
same,"viability, T/C",[16],60.1%
same,"viability, T/C",[17],70.7%
same,"viability, T/C",[18],63.6%
same,"viability, T/C",[19],91.1%
same,"viability, T/C",[20],126%
same,"viability, T/C",[21],69.1%
same,"viability, T/C",[22],59.6%
same,"viability, T/C",[23],68.6%
same,"viability, T/C",[24],48%
same,"viability, T/C",[25],122%
same,"viability, T/C",[26],99%
same,"viability, T/C",[27],79.6%
same,"viability, T/C",[28],56.7%
same,"viability, T/C",[29],60.4%
same,"viability, T/C",[30],58.8%
same,"viability, T/C",[31],131%
same,"viability, T/C",[32],98%
same,"viability, T/C",[33],71.6%
same,"viability, T/C",[34],46.8%
same,"viability, T/C",[35],48.1%
same,"viability, T/C",[36],46.1%
